Experimental data taken from US11185076B2 (priority 2017, dated 2021).
Read-outs that look alike come from different tables or passages of the source.

Experiments:
[1] = system: cucumber mosaic virus (CMV); details: for Control value / Disease Severity index / Number of CMV Infected Leaves: Acute wilt / Number of CMV Infected Leaves: Mosaic / Number of CMV Infected Leaves: No Infection: drench 1 day before inoculation; for Number of CMV Infected Leaves: Acute wilt / Number of CMV Infected Leaves: Mosaic / Number of CMV Infected Leaves: No Infection: 3 checked; for phytotoxicity: cucumber (cultivar: Sagami-hanjiro)
[2] = system: cucumber mosaic virus (CMV); details: for Number of CMV Infected Plants: Acute wilt / Number of CMV Infected Plants: Mosaic / Number of CMV Infected Plants: No Infection: 5 plants; for Number of CMV Infected Plants: Acute wilt / Number of CMV Infected Plants: Mosaic / Number of CMV Infected Plants: No Infection / Control value / Disease Severity index: drench 3 days before inoculation, g ai/10a: (a) 90, (b) 150, dinotefuran 120, thiamethoxam 60, (h) 250, mixtures 90 + 120 and 150 + 60; for phytotoxicity: cucumber (cultivar: Sagami-hanjiro); for control effect on cucumber mosaic virus (CMV) (in words): treatment on 3 day before inoculation
Rice Streak Virus (RSV) = assay: Control test on rice streak virus (RSV) (field trial of nursery box application); type: in vivo, rice stripe virus; details: for phytotoxicity: rice (cultivar: Hinohikari)
Protocol: Rice seedlings (cultivar: Hinohikari) were grown in a greenhouse according to an ordinary procedure and transplanted to an open paddy field. Granules containing 4% of tolprocarb (a) and granules containing 6% of dinotefuran (insecticidal ingredient) formulated according to Formulation Example 2 were respectively treated or were treated in combination in 50 g per box in a nursery box on the day of transplantation. 35 days after transplantation, larvae of RSV-carrying small brown planthopper were released for one week to inoculate rice plants by sucking. At 79 days and 99 days after transplantation, the presence or absence of the unshooting of head was examined.

[3] = system: tomato yellow leaf curl disease (TYLCV); assay: Control test on tomato yellow leaf curl disease (TYLCV) (soil drench test); type: in vivo, tomato yellow leaf curl virus; details: for phytotoxicity: tomato (cultivar: Sekai-ichi); for control effect on tomato yellow leaf curl disease (TYLCV) (in words): treatment on 7 day before inoculation
Protocol: Granules containing 3% of tolprocarb (a) (trade name; Sanblas (registered trademark) granules (manufactured by Mitsui Chemical Agro Co., Ltd.)), granules containing 5% of pyroquilon (b) (trade name; Coratop (registered trademark) granules (manufactured by Syngenta Japan Ltd.)) and granules containing 1% of dinotefran (trade name; Starkle (registered trademark) granules (manufactured by Mitsui Chemicals Agro Co., Ltd.)) were respectively treated or were treated in combination to plant foot of tomato in a predetermined amount. Seven days after chemical agent treatment, the plants were inoculated by sucking of one adult of TYLCV-carrying tobacco whitefly biotype Q per plant for 3 days. Thereafter, the inoculated plants were put in the greenhouse to promote infection, and the control effect was examined after the infection. The infection was examined by the degree of infection, and the disease severity index was calculated based on the degree of infection. The control value was calculated from the disease severity index.
1: observation of initial infection (delayed infection)
2: observation of infection Severity index=((the number of plants of infection index 0×0)+(the number of plants of infection index 1×1)+(the number of plants of infection index 2×2)/(the number of plants examined×2))×100
(§1) The synergistic effect was calculated from the following Colby's equation. Synergistic effect (expected value)=(control value of compound A+control value of compound B)−(control value of compound A×control value of compound B)/100
(§2) When the control value exceeded the expected value in the case of mixing the compounds and applying the mixed product, it was determined that there was a synergistic effect.

[4] = system: Chinese cabbage soft rot bacteria (Erwinia carotovora subsp. carotovora); assay: Control test on Chinese cabbage soft rot (soil incorporation test); type: in vivo; details: for phytotoxicity: Chinese cabbage plant (cultivar: Muso); for control effect on the Chinese cabbage soft rot (in words): whole soil incorporation at the time of planting
Source text: Granules containing 3% of tolprocarb (a) (trade name; Sanblas (registered trademark) granules (manufactured by Mitsui Chemical Agro Co., Ltd.)), granules containing 5% of pyroquilon (b) (trade name; Coratop (registered trademark) granules (manufactured by Mitsui Chemical Agro Co., Ltd.)), granules containing 1.5% of simeconazole (fungicidal component) (trade name; Mongalite (registered trademark) granules (manufactured by Mitsui Chemical Agro Co., Ltd.)) and flowable containing 20% of penthiopyrad (fungicidal component) were respectively incorporated or were incorporated in combination into a pot soil in a predetermined amount. Then, the Chinese cabbage was planted in the pot soil. At 14 days after chemical agent treatment, the Chinese cabbage soft rot was inoculated. […] Thereafter, the inoculated plantes were put in a 25° C. greenhouse to promote infection for 2 days, and the control effect was examined. The infection was examined by the degree of infection, and the disease severity index was calculated based on the degree of infection. The control value was calculated from the disease severity index.
Severity index=((the number of leaves of infection index 0×0)+(the number of leaves of infection index 1×1)+(the number of leaves of infection index 2×2)+(the number of leaves of infection index 3×3)/(the number of leaves examined×3)×100
as §1, §2

[5] = system: tomato powdery mildew (Oidium neolycopersici); assay: Control test on tomato powdery mildew (soil incorporation test); type: in vivo
Protocol: A tomato powdery mildew control test was performed in a greenhouse. A plastic pots having a diameter of 20 cm were used for the test. As test chemical agents, granules containing 3% of tolprocarb (compound (a)) (trade name; Sanblas (registered trademark) granules (Mitsui Chemical Agro Inc.)) commercially available and granules containing 5% of pyroquilon (compound (b)) (trade name: Coratop (registered trademark) granules (manufactured by Syngenta Japan Co., Ltd.)) were mixed to soil on the entire surface of the pot in an amount equivalent to 3 kg/10a. Also, the simplified emulsifiable concentrate E(c) containing the compound (c) was suspended in the distilled water, and was irrigated onto the entire surface of the pot to be incorporated. As the comparative example, granules (trade name: Oryzemate (registered trademark) granules (Meiji Seika Pharma Co., Ltd.)) containing 8% of probenazole (comparative compound (h)) was mixed to soil on the entire surface of the pot in an amount equivalent to 3 kg/10a. Tomato (cultivar: Ohgata-fukuju) grown up to 4-leaf stage of true leaf was planted in a plastic pots having a diameter of 20 cm and were treated with chemical agents. Plants were grown in a glass greenhouse and naturally occurring tomato powdery mildew (Oidium neolycopersici) was examined one month after chemical agent treatment. In the examination, an infection index of six leaves per pot was examined to calculate disease severity index. The control value was calculated from the disease severity index.
The criteria for the degree of infection are as follows.
1: lesion area rate of less than 5%
2: lesion area rate from 5% to 25%
3: lesion area rate from 25% to 50%
The severity index was calculated from the following equation. Severity index=((the number of compound leaves of infection index 0×0)+(the number of compound leaves of infection index 1×1)+(the number of compound leaves of infection index 2×2)+(the number of compound leaves of infection index 3×3)+(the number of compound leaves of infection index 4×4/(the number of compound leaves examined×4))×100

[6] = Total of plots, g ai/10a: (a) 90, (b) 150, (c) 90, (h) 240
[7] = Total, one month after treatment, g ai/10a: (a) 90, (b) 150, (c) 90, (h) 240
[8] = plot I, g ai/10a: (a) 90, (b) 150, (c) 90, (h) 240
[9] = plot II, g ai/10a: (a) 90, (b) 150, (c) 90, (h) 240
[10] = plot III, g ai/10a: (a) 90, (b) 150, (c) 90, (h) 240

## CSC(=O)c1cccc2nnsc12 [Acibenzolar-S-methyl (i), acibenzolar S methyl, reference compound]
[1]; 250 g ai/10a
  Control value: 50.0
  Disease Severity index: 50.0
  Number of CMV Infected Leaves: Acute wilt: 0
  Number of CMV Infected Leaves: Mosaic: 3
  Number of CMV Infected Leaves: No Infection: 0
[1]
  phytotoxicity: not observed

## CN/C(=N/CC1CCOC1)N[N+](=O)[O-] (stereo not drawn) [Dinotefuran, dinotefuran]
[2]
  Number of CMV Infected Plants: Acute wilt: 2
  Number of CMV Infected Plants: Mosaic: 2
  Number of CMV Infected Plants: No Infection: 1
  phytotoxicity: not observed
  Control value: 33.3
  Disease Severity index: 60.0
Rice Streak Virus (RSV); nursery box application
  control effect on the rice stripe blight (RSV) (in words): effect of delaying the occurrence of the unshooting of head
Rice Streak Virus (RSV)
  phytotoxicity: not observed
[3]
  phytotoxicity: not observed

## C=CCOC1=NS(=O)(=O)c2ccccc21 [Probenazole (h), probenazole]
[2]
  Number of CMV Infected Plants: Acute wilt: 0
  Number of CMV Infected Plants: Mosaic: 2
  Number of CMV Infected Plants: No Infection: 3
  phytotoxicity: not observed
  Control value: 77.8
  Disease Severity index: 20.0

## O=C1CCc2cccc3c2N1CC3 [Pyroquilon (b), pyroquilon]
[2]
  Number of CMV Infected Plants: Acute wilt: 0
  Number of CMV Infected Plants: Mosaic: 4
  Number of CMV Infected Plants: No Infection: 1
  phytotoxicity: not observed
  Control value: 55.6
  Disease Severity index: 40.0
  control effect on cucumber mosaic virus (CMV) (in words): excellent control effect
[4]
  phytotoxicity: not observed
  control effect on the Chinese cabbage soft rot (in words): excellent control effect
[3]
  phytotoxicity: not observed
  control effect on tomato yellow leaf curl disease (TYLCV) (in words): excellent control effect

## CN1COCN(Cc2cnc(Cl)s2)/C1=N\[N+](=O)[O-] [Thiamethoxam, thiamethoxam]
[2]
  Number of CMV Infected Plants: Acute wilt: 1
  Number of CMV Infected Plants: Mosaic: 3
  Number of CMV Infected Plants: No Infection: 1
  phytotoxicity: not observed
  Control value: 44.4
  Disease Severity index: 50.0

## Cc1ccc(C(=O)NC[C@@H](NC(=O)OCC(F)(F)F)C(C)C)cc1 [Tolprocarb (a), tolprocarb]
[2]
  Number of CMV Infected Plants: Acute wilt: 0
  Number of CMV Infected Plants: Mosaic: 3
  Number of CMV Infected Plants: No Infection: 2
  phytotoxicity: not observed
  Control value: 66.7
  Disease Severity index: 30.0
  control effect on cucumber mosaic virus (CMV) (in words): excellent control effect
[4]
  phytotoxicity: not observed
  control effect on the Chinese cabbage soft rot (in words): excellent control effect
Rice Streak Virus (RSV)
  phytotoxicity: not observed
[1]; 22.5 g ai/10a
  Control value: 66.7
  Disease Severity index: 33.3
  Number of CMV Infected Leaves: Acute wilt: 1
  Number of CMV Infected Leaves: Mosaic: 0
  Number of CMV Infected Leaves: No Infection: 2
[1]; 45 g ai/10a
  Control value: 16.7
  Disease Severity index: 83.3
  Number of CMV Infected Leaves: Acute wilt: 2
  Number of CMV Infected Leaves: Mosaic: 1
  Number of CMV Infected Leaves: No Infection: 0
[1]; 90 g ai/10a
  Control value: 50.0
  Disease Severity index: 50.0
  Number of CMV Infected Leaves: Acute wilt: 1
  Number of CMV Infected Leaves: Mosaic: 1
  Number of CMV Infected Leaves: No Infection: 1
[1]
  phytotoxicity: not observed
[1]; treatment on 1 day before inoculation
  control effect on cucumber mosaic virus (CMV) (in words): excellent control effect
[3]
  phytotoxicity: not observed
  control effect on tomato yellow leaf curl disease (TYLCV) (in words): excellent control effect

## Cc1cccc2sc3nncn3c12 [Tricyclazole (c), tricyclazole]
[5]; [6]
  Infection index 0 (number of leaves): 8
  Infection index 1 (number of leaves): 8
  Infection index 2 (number of leaves): 2
  Infection index 3 (number of leaves): 0
  Infection index 4 (number of leaves): 0
[5]; [7]
  Control value: 66.7
  Disease Severity index: 16.7
[5]; [8]
  Infection index 0 (number of leaves): 0
  Infection index 1 (number of leaves): 5
  Infection index 2 (number of leaves): 1
  Infection index 3 (number of leaves): 0
  Infection index 4 (number of leaves): 0
[5]; [9]
  Infection index 0 (number of leaves): 5
  Infection index 1 (number of leaves): 1
  Infection index 2 (number of leaves): 0
  Infection index 3 (number of leaves): 0
  Infection index 4 (number of leaves): 0
[5]; [10]
  Infection index 0 (number of leaves): 3
  Infection index 1 (number of leaves): 2
  Infection index 2 (number of leaves): 1
  Infection index 3 (number of leaves): 0
  Infection index 4 (number of leaves): 0
[5]; tomato (cultivar: Ohgata-fukuju), g ai/10a: (a) 90, (b) 150, (c) 90, (h) 240
  phytotoxicity: not observed
[5]; whole soil incorporation
  control effect on tomato powdery mildew (in words): excellent control effect

## CC(C)CC(C)c1sccc1NC(=O)c1cn(C)nc1C(F)(F)F (stereo not drawn) [penthiopyrad, reference compound]
[4]
  phytotoxicity: not observed

## C[Si](C)(C)CC(O)(Cn1cncn1)c1ccc(F)cc1 (stereo not drawn) [simeconazole, reference compound]
[4]
  phytotoxicity: not observed
